Legend:
[1] = tested on: human triple negative breast cancer cells; assay: Cell proliferation assay and hypusine western blot, response to GC7; type: cell-based; settings: FIGS. 2A and 3A
Description: Cell lines were plated in a 6 well plate at 1e5 cells/mL and left to attach overnight. Cells were then treated if necessary then lysed using Radioimmunoprecipitation assay (RIPA) buffer containing phosphatase and protease inhibitors and left to rotate at 4° C. for at least 3 hours. Lysates were then cleared by centrifugation at 12,000 RPM for 10 minutes at 4° C. Protein concentrations were determined using Bradford Assay. 4-12% Bis-Tris […] gels were used to run protein lysates at 20 μg of protein that were stained with NuPage LDS Sample Buffer. Gels were then transferred onto nitrocellulose membranes and exposed to primary antibody solutions at the following concentrations for each indicated antibody. PEAK1 (Millipore 1:400), E-cadherin (Cell Signaling 1:1,000), Hypusine (Thermo Scientific 1:1,000), eIF5A (Thermo Scientific 1:1,000) and β-actin (Pro-Sci 1:1,000). Secondary antibodies were used at a 1:5,000-1:10,000 dilution. Band intensity graphs were quantified using Fiji software after image thresholding.
The CellTiter 96® AQueous One Solution (Promega) was used to perform cell proliferation experiments. Cells were plated at 5e3 cells/mL at 200 μL/well in a 96-well plate and allowed to attach overnight. […] Absorbance readings were measured at 490 nm wavelength at 1.5, 2 and 3 hours (absorbance is directly proportional to the number of living cells).

[2] = tested on: E-cadherin in 67NR cell line; assay: Western blot E-cadherin after GC7; type: cell-based, mouse; settings: increased GC7 concentration, 48 hours; only in 67NR
Description: The inventors sought to determine if the decrease in cell viability is due to the inhibition of post translational modification of eIF5A. To test this, all cell lines were treated with GC7 at 100 μM for 48 hours—which were the time point and concentration at which a decrease in cell viability was seen (FIG. 2B). The inventors then collected, performed a western blot and immunoblotted for hypusine, total eIF5A and β-actin as a loading control (FIG. 3A). […] To test if this effect is dose-dependent, 4T1, 67NR and MCF10CA1a cells were treated with various concentrations of GC7 ranging from 0.1 μM to 100 μM. Protein lysates were then collected after 48 hours of treatment and performed a western blot. […] To validate this in breast cancer cells, the inventors immunoblotted for PEAK1 as well as E-cadherin, hypusine, total eIF5A and β-actin as a loading control (FIG. 3B). […] The inventors next looked at cell viability at lower concentrations of GC7, such as 1 μM and 10 μM, where a decrease in hypusinated eIF5A is still achieved but the decrease in cell viability is not as great in lower concentrations that do still target hypusinated eIF5A (FIG. 3C).
Cell lines were plated in a 6 well plate at 1e5 cells/mL and left to attach overnight. […] Protein concentrations were determined using Bradford Assay. […] Band intensity graphs were quantified using Fiji software after image thresholding.

[3] = tested on: ZEB1 expression in 4T1 cells; assay: qPCR ZEB1 mRNA, TGFβ-induced EMT; type: cell-based, mouse; settings: for ZEB1 mRNA expression: GC7 10 μM pre-treatment
Excerpt: The pathway in which the inventors are interested in targeting eIF5A is in the context of TGFβ-induced EMT and TGFβ is a well-characterized inducer of EMT. […] Phase-contrast images are shown to the right of the western blot to indicate a shift in morphology after treatment with TGFβ. […] Since TGFβ can induce PEAK1 upregulation, while in contrast, hypusinated eIF5A promotes PEAK1 translation, the inventors sought to see if TGFβ alone can upregulate hypusinated eIF5A. Post-translational modifications can occur relatively fast. Therefore short-term treatments of TGFβ on 4T1, 67NR and MCF10CA1a cells were performed initially. Protein lysates were collected after 10, 30 and 120 minutes of treatment and immunoblotted for hypusine, total eIF5A and β-actin (FIG. 4B). […] Relative band intensity is graphed to the right of the western blot in which the ratio between hypusine to total eIF5A is compared first between treated samples to control samples then a ratio is calculated comparing each time point relative to 10 minutes as a starting time point of reference. […] The inventors were also interested in what genes were altered at the transcriptional level when dual treating with TGFβ and GC7 at the same time to block EMT. To test for this, 4T1 and MCF10CA1a cells were plated on either plastic or fibronectin extra-cellular matrix (ECM) protein and pre-treated them with GC7 at 10 μM for 48 hours to ensure the eIF5A hypusination pathway is blocked. The inventors then treated with TGFβ at 2.5 ng/mL and collected RNA after 12 or 48 hours. […] Phase contrast images were also taken before RNA collection to show changes in morphology where EMT was either induced or reversed (FIG. 4C). […] Also, with the correct treatment time and conditions, inhibition of hypusination can block TGFβ-induced EMT.
Next, the inventors investigated whether blockade of HDAC6 and DHPS activity could further suppress TGFβ-induced EMT either independently or simultaneously. To test this, 4T1 cells were treated with either TubA at 10 μM, GC7 at 10 μM or both for 48 hours. At this time point, protein lysates were collected as well as phase-contrast images (FIGS. 6B and 6C). At that same time point, the media was changed and the cells were re-treated with the same drugs at the same concentrations; however, this time with the addition of TGFβ at 2.5 ng/mL. The inventors collected protein lysates and phase-contrast images just one day post TGFβ treatment, calling this the 72-hour time point (FIGS. 6B and 6C). In addition, the inventors collected mRNA, protein lysates, phase-contrast and immunofluorescences images two days post TGFβ treatment, calling this the 96-hour time point (FIGS. 6A, 6B, 6C and 6D).
Cell lines were plated in a 6 well plate at 1e5 cells/mL and left to attach overnight. […]

breast cancer cells = assay: GC7 potency after induction of EMT by TGFβ; type: cell-based; settings: induction of EMT by TGFβ treatment

N=C(N)NCCCCCCCN.O=S(=O)(O)O [GC7, N1-Guanyl-1,7-diaminoheptane]
sensitivity to GC7 treatment [1]: insensitive | E-cadherin protein expression [2]: decrease in E-cadherin | TGFβ-induced EMT, ZEB1 mRNA (qPCR) ([3]; 10 μM each drug, re-treated with TGFβ 2.5 ng/mL at 48 hours, 96-hour time point): failed to block TGFβ-induced EMT | ZEB1 mRNA expression ([3]; TGFβ 2.5 ng/mL 12 hours, fibronectin): this effect was blocked on fibronectin | ZEB1 mRNA expression ([3]; TGFβ 2.5 ng/mL 12 hours, plastic): decreased | ZEB1 mRNA expression ([3]; TGFβ 2.5 ng/mL 48 hours): This effect was not seen after 48 hours | GC7 potency after TGFβ-induced EMT (breast cancer cells): increases GC7 potency

Reference: patent publication US20190216751A1, “Compositions and Methods for the Treatment and Prevention of Cancer” (California State University Northridge, priority 2017, published 2019)
